Laboratory results taken from the NIST ThermoML archive (doi:10.1021/je2003622).
± gives the expanded uncertainty stated by the source.

Columns and labels:
[1] = wn = mass fraction of the nth substance listed; details: 101 kPa, Liquid
[2] = mn = molality of the nth substance listed, in mol/kg; details: 101 kPa, Liquid

CO [methanol] + O
[1]
Details | mass density, 298.15 K [kg/m3] | mass density, 308.15 K [kg/m3] | mass density, 318.15 K [kg/m3] | mass density, 323.15 K [kg/m3] | viscosity, 298.15 K [mPa·s] | viscosity, 308.15 K [mPa·s] | viscosity, 318.15 K [mPa·s] | viscosity, 323.15 K [mPa·s]
w1 = 0.0806 | 982.97 ± 1.5 | 979.73 ± 1.6 | 976.04 ± 1.7 | 974.38 ± 1.8 | 1.084 ± 0.051 | 0.8665 ± 0.042 | 0.7017 ± 0.036 | 0.6375 ± 0.033
w1 = 0.1647 | 969.63 ± 1.4 | 966.32 ± 1.6 | 961.62 ± 1.7 | 958.75 ± 1.8 | 1.311 ± 0.061 | 1.022 ± 0.049 | 0.8075 ± 0.04 | 0.73 ± 0.037
w1 = 0.2526 | 956.2 ± 1.4 | 951.6 ± 1.6 | 946.26 ± 1.7 | 943.31 ± 1.8 | 1.471 ± 0.068 | 1.142 ± 0.054 | 0.8957 ± 0.044 | 0.8052 ± 0.04
w1 = 0.3446 | 939.57 ± 1.4 | 933.64 ± 1.5 | 931.4 ± 1.7 | 928 ± 1.8 | 1.448 ± 0.067 | 1.203 ± 0.056 | 0.9309 ± 0.045 | 0.8288 ± 0.041

CCCCCCCCCCCCOS(=O)(=O)[O-].[Na+] [sodium dodecyl sulfate] + O
[2]
Details | mass density [kg/m3]
298.15 K, m1 = 0.03036 | 998.33 ± 2.3
298.15 K, m1 = 0.04026 | 998.74 ± 2.3
298.15 K, m1 = 0.04734 | 999.03 ± 2.3
298.15 K, m1 = 0.05935 | 999.5 ± 2.3
298.15 K, m1 = 0.0771 | 1000.24 ± 2.3
298.15 K, m1 = 0.08753 | 1000.63 ± 2.3
298.15 K, m1 = 0.0992 | 1001.07 ± 2.3
298.15 K, m1 = 0.1159 | 1001.71 ± 2.3
308.15 K, m1 = 0.03046 | 995.13 ± 2.4
308.15 K, m1 = 0.0404 | 995.48 ± 2.4
308.15 K, m1 = 0.04749 | 995.73 ± 2.4
308.15 K, m1 = 0.05955 | 996.13 ± 2.4
308.15 K, m1 = 0.07737 | 996.76 ± 2.4
308.15 K, m1 = 0.08785 | 997.09 ± 2.5
308.15 K, m1 = 0.09957 | 997.46 ± 2.5
308.15 K, m1 = 0.1163 | 997.99 ± 2.5
318.15 K, m1 = 0.03059 | 991.17 ± 2.6
318.15 K, m1 = 0.04056 | 991.47 ± 2.6
318.15 K, m1 = 0.04769 | 991.69 ± 2.6
318.15 K, m1 = 0.0598 | 992.03 ± 2.6
318.15 K, m1 = 0.07771 | 992.57 ± 2.6
318.15 K, m1 = 0.08824 | 992.85 ± 2.6
318.15 K, m1 = 0.1 | 993.17 ± 2.6
318.15 K, m1 = 0.1169 | 993.63 ± 2.6
323.15 K, m1 = 0.03066 | 988.91 ± 2.6
323.15 K, m1 = 0.04066 | 989.19 ± 2.6
323.15 K, m1 = 0.0478 | 989.39 ± 2.6
323.15 K, m1 = 0.05995 | 989.71 ± 2.6
323.15 K, m1 = 0.0779 | 990.21 ± 2.6
323.15 K, m1 = 0.08845 | 990.47 ± 2.6
323.15 K, m1 = 0.1003 | 990.76 ± 2.6
323.15 K, m1 = 0.1172 | 991.18 ± 2.6
